Measurements taken from US12570603B2, “FABP4/5 inhibitors, methods of use and methods of making” (Novius Therapeutics, LLC, priority 2021, dated 2026).
Read-outs that look alike come from different tables or passages of the source.

Legend:
3T3-L1 adipocytes = assay: Lipid uptake during adipocyte maturation, Nile Red; assay type: cell-based, mouse; conditions: B4 from day 6, stained day 12
Description: (§1) 3) 3T3-L1: Mouse 3T3-L1 cells were differentiated in culture according to ATCC protocol to become mature adipocytes. At day 6 of the differentiation, compound treatment started. Cells were stained by Nile Red on day and color intensity in each cell was measured relative to Dapi staining. Lipolysis was measured by measuring glycerol levels using lipolysis kit (Cayman, USA) according to the manufacturer manual.
as §1, with “1)” for “3)”

MB-231 tumors = assay: TNBC xenograft experiment; assay type: in vivo; conditions: NSG mice, B4 20 or 40 mg/kg IP 5 times a week, after 14 days
Description: Eight-week-old NSG […] females were injected subcutaneously into the right flank with 5×10^6 MB-231 cells 1:1 with matrigel. Treatments started the day after cells injections 5 days a week. Mice were treated with either vehicle (5% DMSO, 15%-HPCBD (PH 9.0) in water), 20 mg/kg, or 40 mg/kg B4 dissolved in vehicle. Tumor size was assessed twice per week using a digital caliper. Tumor volumes were determined by measuring the length (l) and the width (w) of the tumor and calculating the volume (V=lw^2/2). Mice were scarified 14 days after injection. Statistical significance between the control and treated mice in both experiments was evaluated using a Student's t test. Mouse experiments were conducted after approval by the institutional animal care and use committee at Case Western Reserve University.
TNBC xenograft model was used to test the efficacy of B4 in suppressing growth on tumors in vivo. 5×10^6 MB-231 cells were subcutaneously injected into the right flank of NSG mice. B4 (20, or 40 mg/kg) or a vehicle were IP injected 5 times a week and tumor growth was monitored.

[1] = tested on: LX-2 hepatic stellate cells; assay: Lipid uptake assay, Oil Red O staining of lipid droplets; assay type: cell-based, human
Description: 1) LX-2: Human LX-2 hepatic stellate cells were treated with compound for 2 days in the presence or absence of 2% lipid mixture (Sigma, USA) in the growth media. Cells were stained with Oil Red O and lipid content was quantified using ImageJ.

[2] = tested on: PPARδ targets PDPK1 and CD47 in TNBC cells MB-157; assay: Real-time PCR of PPARδ targets; assay type: cell-based, human; conditions: MB-157, 1 μM, 6 hours
Description: Cells were treated with a compound for 6 h. then lysed and RNA was extracted using Trizol, according to the manufacturer's instructions. cDNA was generated using GeneAmp RNA PCR (Applied Biosystems). qPCR was carried out using TaqMan chemistry and Assays-on-Demand probes (Applied Biosystems). 18s (4352930) rRNA was used for normalization. Relative expression was calculated as 2^−ΔΔCT.

FABP4 = target: T1, FABP4 (Homo sapiens, UniProt P15090); assay: FABP binding assay by fluorescence titration (ANS competition)
T1 construct: made in house
Description: (§2) This example illustrates a binding assay study used to determine the binding affinity of the various inhibitor compounds disclosed herein with the various FABPs: FABP3, FABP4, FABP5 and FABP7.
(§3) Binding assays for FABP3, FABP4, FABP5 and FABP7 were carried out by fluorescence titrations. FABPs were bacterially expressed and purified and the equilibrium dissociation constants (Kd) that characterize their interactions with different compounds were measured by fluorescence competition assays. The method entails two steps as described in e.g., Lin, Q. et al., “Ligand selectivity of the peroxisome proliferator-activated receptor alpha,” Biochemistry 38, 185-190, doi:10.1021/bi9816094 bi9816094 [pii](1999). In the first step, Kd for the association of the protein with the fluorescent fatty acid probe ANS was measured. Protein ([…]) was titrated with ANS from a concentrated solution in DMSO. Ligand binding was monitored by following the increase in the fluorescence of the ligand upon binding to the protein, and Kd for the association of ANS with the each FABP was computed from titration curves as described in e.g., Norris, A. W. & Li, E., “Fluorometric titration of the CRABPs,” Methods Mol Biol 89, 123-139 (1998)). Kds for binding of non-fluorescent ligands were then measured by monitoring their ability to displace ANS in the binding pocket of the protein. Each FABP was pre-complexed with ANS at 1:1 molar ratio and titrated with the different compounds whose binding was reflected by a decrease in probe fluorescence. Kds were extracted from the EC50 of the competition curve and the measured Kd for ANS.
(§4) Binding assays for FABP3, FABP4, FABP5 and FABP7 were carried out by fluorescence titrations as described in Example 16.

FABP5 = target: T2, FABP5 (Homo sapiens, UniProt Q01469); assay: as above
T2 construct: made in house
Description: as §2, §3, §4

T2 sequence (Q01469 whole entry, species assumed): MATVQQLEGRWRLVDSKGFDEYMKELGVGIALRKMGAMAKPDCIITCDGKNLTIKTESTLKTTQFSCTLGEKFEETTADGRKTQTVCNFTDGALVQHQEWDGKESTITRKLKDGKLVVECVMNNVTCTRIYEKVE
T1 sequence (P15090 whole entry, species assumed): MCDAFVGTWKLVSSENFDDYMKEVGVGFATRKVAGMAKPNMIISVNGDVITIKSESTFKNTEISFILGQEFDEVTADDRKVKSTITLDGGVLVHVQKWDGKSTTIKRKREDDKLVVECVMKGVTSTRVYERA

Kd (FABP4; FIG. 1A/1B, read-out: binding affinity towards FABP4 (Kd)): < 1000 nM
Kd (FABP4; fluorescence competition with ANS, read-out: FABP4 binding): 66 nM
Kd (FABP5; FIG. 1A/1B, read-out: binding affinity towards FABP5 (Kd)): < 1000 nM
Kd (FABP5; fluorescence competition with ANS, read-out: FABP5 binding): 36 nM
Structure (SMILES): CC(C)Oc1cc(NC(=O)CSCC(=O)O)c(Cl)cc1Cl [Compound B4, 2-((2-((2,4-dichloro-5-isopropoxyphenyl)amino)-2-oxoethyl)thio)acetic acid]
lipid droplets in adipocytes (Nile Red) (3T3-L1 adipocytes): fewer LD within the cells
growth of 231 tumors (MB-231 tumors): almost completely abolished growth
amount of lipid droplets (Oil Red O) ([1]; B4 alone, activated LX-2 cells): increased the amount of LD in the cells
lipid droplet size ([1]; co-treatment with 2% lipid mix and B4): increases the LD size even more
levels of endogenous PPARδ targets PDPK1 and CD47 [2]: significantly lower
